Experimental data taken from patent US20080045514A1 (Cytovia, Inc., priority 2006, published 2008).
Where a name gives a salt, the structure may show the parent alone.

Key:
Assay type in all cases: cell-based
[1] = test system: human breast cancer cell line T-47D; assay: Caspase cascade activation (EC50), T-47D; conditions: Homo sapiens; T47D cells; caspase cascade activation; read-out: caspase potency (EC50) T47D
Method in brief: (§1)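 Test compound (0.016–10 μM final) is incubated with cells for 48 h at 37 °C. Caspase-3-like activity is measured by 3 h room-temperature cleavage of DEVD-R110 in PIPES pH 7.2 lysis buffer, with EC50 from sigmoidal fitting of background-corrected RFU relative to control.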

[2] = test system: human hepatocellular carcinoma cell line SNU398; assay: Caspase cascade activation (EC50), SNU398; conditions: Homo sapiens, SNU-398; SNU398 cells; caspase cascade activation; read-out: caspase potency (EC50) SNU398
Method in brief: as §1

[3] = test system: human colon carcinoma cell line HCT116; assay: Caspase cascade activation (EC50), HCT116; conditions: Homo sapiens, HCT-116; HCT116 cells; caspase cascade activation; read-out: caspase potency (EC50) HCT116
Method in brief: as §1

[4] = test system: human Burkitt's lymphoma cell line Namalwa; assay: Caspase cascade activation (EC50), Namalwa; conditions: Homo sapiens, Burkitts lymphoma cell; Namalwa cells; caspase cascade activation; read-out: caspase potency (EC50) Namalwa
Method in brief: as §1

[5] = test system: human lymphoma cell line Raji; assay: Caspase cascade activation (EC50), Raji; conditions: Homo sapiens, RAJI cells, read-out: caspase potency (EC50) RAJI
Method in brief: as §1

[6] = test system: human B cell lymphoblastoid cell line Ramos; assay: Caspase cascade activation (EC50), Ramos; conditions: Homo sapiens, RAMOS cells, read-out: caspase potency (EC50) RAMOS
Method in brief: as §1

[7] = test system: human breast cancer cell line T-47D; assay: Inhibition of cell proliferation (GI50), T47D; conditions: Homo sapiens; T47D cells, 48 h, CellTiter-Glo
Description: (§2) Human breast cancer cell lines T-47D, human hepatocellular carcinoma cell line SNU398, human colon carcinoma cell line HCT116, human lung cancer cell line H1299, human leukemia cell line K562, human lymphoma cell line Raji, human B cell lymphoblastoid cell line Ramos, and human Burkitt's lymphoma cell line Namalwa were grown and harvested as in Example 100. An aliquot of […] of cells (4.4×10^4 cells/mL) was added to a well of a 96-well microtiter plate containing 5 μL of a 10% DMSO in RPMI-1640 media solution containing 10 nM to 100 μM of 3-(2-chlorophenyl)-6-(3,4-methylenedioxyphenyl)-7H-[1,2,4]triazolo[3,4-b][1,3,4]thiadiazine (1 nM to 10 μM final). An aliquot of 45 μL of cells was added to a well of a 96-well microtiter plate containing 5 μL of a 10% DMSO in RPMI-1640 media solution without compound as the control sample for maximal cell proliferation (LMax). The samples were mixed by agitation and then incubated at 37° C. for 48 h in a 5% CO2-95% humidity incubator. After incubation, the samples were removed from the incubator and 25 μL of CellTiter-Glo™ reagent (Promega) was added. The samples were mixed by agitation and incubated at room temperature for 10-15 min. Plates were then read using a luminescent plate reader (Model SPECTRAfluor Plus, Tecan) to give Ltest values.
(§3) The samples were mixed by agitation and then incubated at 37° C. for 0.5 h in a 5% CO2-95% humidity incubator. After incubation, the samples were removed from the incubator and 25 μL of CellTiter-Glo™ reagent (Promega) was added. The samples were mixed by agitation and incubated at […] 10-15 min at room temperature in a 5% CO2-95% humidity incubator. Fluorescence was read as above, (LStart) defining luminescence for initial cell number used as baseline in GI50 determinations.
(§4) Calculation: GI50 (dose for 50% inhibition of cell proliferation) is the concentration where [(Ltest−LStart)/(LMax−LStart)]=0.5.

[8] = test system: human hepatocellular carcinoma cell line SNU398; assay: Inhibition of cell proliferation (GI50), SNU398; conditions: Homo sapiens; SNU 398 cells, 48 h, CellTiter-Glo
Description: as §2, §3, §4

[9] = test system: human colon carcinoma cell line HCT116; assay: Inhibition of cell proliferation (GI50), HCT116; conditions: Homo sapiens; HCT 116 cells, 48 h, CellTiter-Glo
Method in brief: (§5)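 Seed 4.4×10^4 cells/mL onto compound dilutions (final 1 nM to 10 μM). Incubate 48 h, 37 °C, 5% CO2. Add CellTiter-Glo, read luminescence. Compute GI50 from test signal normalised between 0.5 h starting signal and untreated control.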

[10] = test system: human leukemia cell line K562; assay: Inhibition of cell proliferation (GI50), K562; conditions: Homo sapiens; K562 cells, 48 h, CellTiter-Glo
Method in brief: as §5

[11] = test system: human lymphoma cell line Raji; assay: Inhibition of cell proliferation (GI50), Raji; conditions: Homo sapiens; Raji cells, 48 h, CellTiter-Glo
Method in brief: as §5

[12] = test system: human B cell lymphoblastoid cell line Ramos; assay: Inhibition of cell proliferation (GI50), Ramos; conditions: Homo sapiens; Ramos cells, 48 h, CellTiter-Glo
Method in brief: as §5

[13] = test system: human Burkitt's lymphoma cell line Namalwa; assay: Inhibition of cell proliferation (GI50), Namalwa; conditions: Homo sapiens, Burkitts lymphoma cell; Namalwa cells, 48 h, CellTiter-Glo
Method in brief: as §5

[14] = test system: human cancer cell line H1299; assay: Caspase cascade activation (EC50), H1299; conditions: NCI-H1299, H1299 cells, read-out: caspase potency (EC50) H1299
Method in brief: as §1

[15] = test system: human lung cancer cell line H1299; assay: Inhibition of cell proliferation (GI50), H1299; conditions: NCI-H1299, H1299 cells, 48 h, CellTiter-Glo
Description: as §2, §3, §4

| SMILES | EC50 [1] [nM] | EC50 [2] [nM] | EC50 [3] [nM] | EC50 [4] [nM] | EC50 [5] [nM] | EC50 [6] [nM] | GI50 [7] [nM] | GI50 [8] [nM] | GI50 [9] [nM] | GI50 [10] [nM] | GI50 [11] [nM] | GI50 [12] [nM] | GI50 [13] [nM] | EC50 [14] [nM] | GI50 [15] [nM] |
| --- | --- | --- | --- | --- | --- | --- | --- | --- | --- | --- | --- | --- | --- | --- | --- |
| COc1ccccc1-c1nnc2n1N=C(c1ccc(C)cc1)CS2 [Example 8, 3-(2-Methoxyphenyl)-6-(4-methylphenyl)-7H-[1,2,4]triazolo[3,4-b][1,3,4]thiadiazine hydrochloride] | 146 | 25 | 60 | 31 | 57 | 30 | 17 | 150 | 15 | 43 | 27 | 16 | 66 |  |  |
| COc1ccccc1-c1nnc2n1N=C(c1ccc(N=[N+]=[N-])cc1)CS2 [Example 76, 6-(4-Azidophenyl)-3-(2-methoxyphenyl)-7H-[1,2,4]triazolo[3,4-b][1,3,4]thiadiazine] | 93 | 54 | 72 | 62 |  |  | 34 | 23 | 109 |  |  |  | 55 |  |  |
| COc1ccccc1-c1nnc2n1N=C(c1ccc(NC(C)C)cc1)CS2 [Example 80, 6-(4-Isopropylaminophenyl)-3-(2-methoxyphenyl)-7H-[1,2,4]triazolo[3,4-b][1,3,4]thiadiazine] | 188 | 117 | 204 | 115 |  |  | 297 | 115 | 300 |  |  |  | 170 |  |  |
| Cc1ccc(C2=Nn3c(nnc3-c3ccc(Cl)cc3C)SC2)cc1 [Example 81, 3-(4-Chloro-2-methylphenyl)-6-(4-methylphenyl)-7H-[1,2,4]triazolo[3,4-b][1,3,4]thiadiazine] | 270 | 39 | 67 | 55 |  |  | 255 | 21 | 79 |  |  |  | 18 |  |  |
| CNc1ccccc1-c1nnc2n1N=C(c1ccc(C)cc1)CS2 [Example 84, 3-(2-Methylaminophenyl)-6-(4-methylphenyl)-7H-[1,2,4]triazolo[3,4-b][1,3,4]thiadiazine] | 528 | 148 | 130 | 125 |  |  | 498 | 154 | 911 |  |  |  | 150 |  |  |
| COc1ccc(C2=Nn3c(nnc3-c3ccc(OC)c(OC)c3)SC2)cc1OC [Example N1, 3-(3,4-Dimethoxyphenyl)-6-(3,4-dimethoxyphenyl)-7H-[1,2,4]triazolo[3,4-b][1,3,4]thiadiazine] | 2220 | 1310 | 2480 | 556 | 570 | 586 | 2650 |  |  |  |  |  |  | 2420 | 1940 |
| COc1ccc(C2=Nn3c(nnc3-c3ccc(Cl)cc3Cl)SC2)cc1 [Example N3] | 284 | 52 | 55 | 32 |  |  | 34 | 13 | 40 |  |  |  | 64 |  |  |
| Cc1cccc(-c2nnc3n2N=C(c2ccc4c(c2)OCO4)CS3)c1 [Example T, 3-(3-Methylphenyl)-6-(3,4-methylenedioxyphenyl)-7H-[1,2,4]triazolo[3,4-b][1,3,4]thiadiazine] | 345 | 243 | 471 | 261 | 221 | 262 | 375 |  |  |  |  |  |  | 1230 | 314 |
| c1cc2c(cc1C1=Nn3c(nnc3-c3n[nH]c4c3CCC4)SC1)OCO2 [Example W2] | 431 | 506 | 599 | 592 | 710 | 523 | 1500 | 294 | 5900 | 1870 | 3000 | 1290 | 2550 |  |  |
| Clc1ccc(-c2nnc3n2N=C(c2ccc4c(c2)OCO4)CS3)cc1 [G, 3-(4-Chlorophenyl)-6-(3,4-methylenedioxyphenyl)-7H-[1,2,4]triazolo[3,4-b][1,3,4]thiadiazine] | 513 | 273 | 849 | 265 | 393 | 481 | 97 |  |  |  |  |  |  | 1420 | 307 |

Results, then the compound that gave them:

| EC50 [1] [nM] | EC50 [2] [nM] | EC50 [3] [nM] | EC50 [4] [nM] | EC50 [5] [nM] | EC50 [6] [nM] | GI50 [7] [nM] | GI50 [8] [nM] | GI50 [9] [nM] | GI50 [10] [nM] | GI50 [11] [nM] | GI50 [12] [nM] | GI50 [13] [nM] | EC50 [14] [nM] | GI50 [15] [nM] | SMILES |
| --- | --- | --- | --- | --- | --- | --- | --- | --- | --- | --- | --- | --- | --- | --- | --- |
| 32 | 6 | 17 | 7 | 15 | 7 | 28 | 1 | 34 |  |  |  | 6 |  |  | COc1ccc(C2=Nn3c(nnc3-c3ccc(OC)cc3OC)SC2)cc1 [Example 18, 3-(2,4-Dimethoxyphenyl)-6-(4-methoxyphenyl)-7H-[1,2,4]triazolo[3,4-b][1,3,4]thiadiazine hydrochloride] |
| 35 | 24 | 32 | 17 | 29 | 20 | 48 | 12 | 67 |  |  |  | 12 |  |  | CCOc1ccccc1-c1nnc2n1N=C(c1ccc(C)cc1)CS2 [Example 19, 3-(2-Ethoxyphenyl)-6-(4-methylphenyl)-7H-[1,2,4]triazolo[3,4-b][1,3,4]thiadiazine hydrobromide] |
|  |  |  | 55 | 95 | 36 | 373 | 11 | 99 |  |  |  | 13 |  |  | COc1ccc(C2=Nn3c(nnc3-c3cc(OC)cc(OC)c3)SC2)cc1 [Example 20, 3-(3,5-Dimethoxyphenyl)-6-(4-methoxyphenyl)-7H-[1,2,4]triazolo[3,4-b][1,3,4]thiadiazine hydrobromide] |
|  |  |  | 280 | 434 | 272 | 185 | 20 | 680 |  |  |  | 176 |  |  | CCN(CC)c1ccc(C2=Nn3c(nnc3-c3cc(OC)c(OC)c(OC)c3)SC2)cc1 [Example 21, 6-(4-Diethylaminophenyl)-3-(3,4,5-trimethoxyphenyl)-7H-[1,2,4]triazolo[3,4-b][1,3,4]thiadiazine hydrochloride] |
| 18 | 14 | 11 | 7 |  |  | 5 | 2 | 12 |  |  |  | 5 |  |  | COc1ccccc1-c1nnc2n1N=C(c1ccc(N(C)C)cc1)CS2 [Example 77, 6-(4-dimethylaminophenyl)-3-(2-methoxyphenyl)-7H-[1,2,4]triazolo[3,4-b][1,3,4]thiadiazine] |
